Reference: US5837548A, “Treatment of inflammation by inhibition of lipid body formation” (Beth Israel Hospital, priority 1995, dated 1998)

Columns and labels:
Assay type in all cases: cell-based
human eosinophils = assay: cis-unsaturated fatty acid-induced lipid body formation in human eosinophils
Procedure: Vehicle alone is represented by the dark columns. AA and OA are represented by the striped and gray columns, respectively. Agonist plus the pretreatment with aspirin is represented by the cross-hatched columns. Cells (10^6 /mL) were pretreated with aspirin (10 μg/mL) or vehicle for one hour and then stimulated arachidonic acid (15 μM), oleic acid (10 μM) or vehicle for one hour. Lipid bodies were enumerated by light microscopy following osmium staining. Each point represents the mean±SEM from fifty consecutively counted cells. The statistically significant difference between the vehicle alone and the agonist is represented by a cross. Statistically significant differences due to pretreatment with aspirin are indicated by an asterisk.
Neutrophils were purified from fresh human blood obtained by venipuncture from healthy adult volunteers and collected into acidified citrate. After addition of 6% dextran 70 (McGaw, Irvine, Calif.), RBCs were allowed to sediment for 1 hour at room temperature. The leukocyte-rich supernatant was overlaid onto an equal volume of Ficoll-Paque gradient (Piscataway, N.J.), and centrifuged at 400×g for 20 min. PMNs (>95% pure, rest being eosinophils) were recovered from the pellet and washed in Ca^++ /Mg^++ free HBSS. Residual RBCs were lysed with hypotonic saline. Eosinophils (80% pure, the rest being neutrophils) were obtained from a donor with idiopathic hypereosinophilic syndrome using the same procedure as described above.
Human leukocytes (10^6 cells/mL) were incubated with varying concentrations of arachidonic acid (AA), oleic acid (OA) or vehicle at 37° C. in a 5% CO2 /95% O2 atmosphere, and after 1 hour leukocytes (10^5 cells per slide) were cytocentrifuged (550 rpm, 5 min) onto glass slides. During inhibitory studies, neutrophils were pretreated for 1 hour with varying concentrations of enzyme inhibitors, protein synthesis inhibitors, or vehicle as indicated. When PKC inhibitors were used, the pre-incubation time was reduced to 30 minutes to avoid toxic effects to the cells. The cell viability, determined by trypan blue dye exclusion at the end of each experiment, was always greater than 90%. Stock solutions for A23187, D609, U-73122, and indomethacin were prepared in DMSO and stored at -20° C. Aliquots were diluted in Ca^++ /Mg^++ fee HBSS to the indicated concentration immediately prior to use. […]
Results were expressed as mean±SEM and were analyzed statistically by means of the analysis of variance followed by the Newman-Keuls-Student test with the level of significance set at p<0.05. Correlation coefficients were determined by linear regression, and correlation analysis was performed by Fisher's r to z transformation with the level of significance set at p<0.05.

[1] = system: human neutrophils (PGE2 production); assay: PGE2 production by human neutrophils (priming, A23187 stimulation, ELISA)
Procedure: FIG. 1B is a graph showing the effect of arachidonic acid (AA) and oleic acid (OA) on lipid body induction (black) and priming for enhanced prostaglandin E2 (PGE2) production (white) by human neutrophils. Neutrophils (10^6 /mL) were stimulated for one hour with arachidonic acid (3.7, 7.5, 15 μM) or oleic acid (2.5, 5, 10 μM). Lipid bodies were enumerated using light microscopy following osmium staining. The concentration of PGE2 in the supernatant was measured by ELISA after incubation with A23187 (0.5 μM) for 15 minutes at 37° C. Data are expressed as mean from 2-3 independent assays performed in duplicate.
(§1) After the incubation time, a sample was taken for lipid body enumeration and the cells were washed in Ca^++ /Mg^++ free HBSS. Leukocytes were resuspended in 1 mL of HBSS containing Ca^++ /Mg^++ and then stimulated with A23187 (0.5 μM) for 15 min. The reaction was stopped on ice, and the samples were centrifuged at 1500 rpm for 10 min at 4° C. The concentrations of PGE2, LTB4, and LTC4 in the supernatants were assayed by ELISA according to the manufacturer's instructions (Cayman, Ann Arbor, Mich.).

[2] = system: human eosinophils (LTC4 production); assay: LTC4 production by human eosinophils (priming, A23187 stimulation, ELISA)
Procedure: FIG. 2A is a graph illustrating the effect of arachidonic acid (AA) and oleic acid (OA) on induction of lipid body formation (black) and priming effects (white) for enhanced leukotriene C4 (LTC4) by human eosinophils. Eosinophils (10^6 /mL) were stimulated for one hour with arachidonic acid (3.7, 7.5, 15 μM) or oleic acid (2.5, 5, 10 μM). Lipid bodies were enumerated using light microscopy following osmium staining. The concentration of LTC4 in the supernatant was measured by ELISA after incubation with A23187 (0.5 μM) for 15 minutes at 37° C. Data are expressed as mean from 2 independent assays performed in duplicate.
FIG. 5B is a graph showing that aspirin inhibits cis-unsaturated fatty acid-induced priming for enhanced leukotriene C4 (LTC4) production in human eosinophils. Striped and open columns represent vehicle treated cells and aspirin treated cells, respectively. Cells (10^6 /mL) were pretreated with aspirin (10 μg/mL) or vehicle for one hour and then stimulated with OA (10 μM) or vehicle for one hour. The concentration of LTC4 in the supernatant was measured by ELISA after incubation with A23187 (0.5 μM) for 15 minutes at 37° C. Data are expressed as mean from 2-4 independent assays performed in duplicate. The statistically significant difference between the vehicle alone and the agonist is represented by a cross. Statistically significant differences due to pretreatment with aspirin are indicated by an asterisk.
as §1

[3] = Homo sapiens, Neutrophil, 1 h, read-out: fold increase in production of PGE2
[4] = Homo sapiens, Eosinophil, 1 h, read-out: fold increase in production of LTC4

Row | Compound | increase in number of lipid bodies (human eosinophils) | fold induction at 10 µM [1, 3] | increase in production of PGE2 ([1]; neutrophils) | correlation (r) between number of lipid bodies and priming for enhanced PGE2 release ([1]; oleic acid, leukocytes, p<0.01) | fold induction at 10 µM [2, 4] | increase in production of LTC4 ([2]; eosinophils) | correlation (r) between number of lipid bodies and priming for enhanced LTC4 release ([2]; oleic acid, leukocytes, p<0.05) | inhibition of arachidonic acid-induced lipid body formation (human eosinophils; 10 μg/mL) | inhibition of oleic acid-induced lipid body formation (human eosinophils; 10 μg/mL) | inhibition of PGE2 production ([1]; neutrophils, 10 μg/mL pretreatment) | inhibition of calcium ionophore-induced LTC4 production ([2]; cells not pre-stimulated with cis-unsaturated fatty acids) | inhibition of oleic acid-induced priming for enhanced LTC4 production ([2]; eosinophils, 10 μg/mL, OA 10 μM) | fold induction at 15 µM [1, 3] | fold induction at 15 µM [2, 4]
1 | CCCCCCCC/C=C\CCCCCCCC(=O)O [oleic acid] | dose-dependent increase in the number of lipid bodies | 2 | dose-dependent increase in production | 0.99 | 1.7 | dose-dependent increase in production | 0.95 | – | – | – | – | – | – | –
2 | CC(=O)Oc1ccccc1C(=O)O [aspirin] | – | – | – | – | – | – | – | significantly inhibited | significantly inhibited | inhibited PGE2 production | failed to inhibit | significantly inhibited | – | –
3 | CCCCC/C=C\C/C=C\C/C=C\C/C=C\CCCC(=O)O [arachidonic acid] | dose-dependent increase in the number of lipid bodies | – | dose-dependent increase in production | – | – | dose-dependent increase in production | – | – | – | – | – | – | 3.5 | 1.4
